Experimental data: patent publication US20230150986A1, “ANTAGONISTS OF THE MUSCARINIC ACETYLCHOLINE RECEPTOR M4” (Vanderbilt University, priority 2019, published 2023)

Biological target: T1, Human M4 (Homo sapiens, UniProt P08173)
T1 construct: Human or rat M4 cDNA, along with the chimeric G protein Gq,5, were transfected into Chinese hamster ovary (CHO-K1) cells; expressed in transfected cells; host or cells: CHO-K1 (M4/Gqi5/CHO)
T1 sequence (P08173 1-479): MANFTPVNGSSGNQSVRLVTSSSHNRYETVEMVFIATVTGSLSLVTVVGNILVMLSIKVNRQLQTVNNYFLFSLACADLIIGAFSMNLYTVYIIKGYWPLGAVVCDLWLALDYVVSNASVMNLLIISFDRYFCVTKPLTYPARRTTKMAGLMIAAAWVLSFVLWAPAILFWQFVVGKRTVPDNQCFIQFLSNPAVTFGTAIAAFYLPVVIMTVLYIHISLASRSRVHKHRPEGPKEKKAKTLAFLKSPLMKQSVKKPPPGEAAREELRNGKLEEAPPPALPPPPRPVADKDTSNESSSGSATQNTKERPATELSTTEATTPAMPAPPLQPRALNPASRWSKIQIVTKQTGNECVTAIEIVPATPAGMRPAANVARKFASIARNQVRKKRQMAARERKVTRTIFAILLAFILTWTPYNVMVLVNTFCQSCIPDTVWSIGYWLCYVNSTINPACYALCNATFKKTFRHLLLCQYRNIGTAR
Test: mAChR M4 cell-based functional assay (calcium flux, decrease of EC80 acetylcholine response)
Settings: for Human M4 Emin: % ACh maximum at 30 μM; for IC50: CHO-K1 cells with human M4 and Gqi5, EC80 acetylcholine
Procedure: Human or rat M4 cDNA, along with the chimeric G protein Gq,5, were transfected into Chinese hamster ovary (CHO-K1) cells purchased from the American Type Culture Collection using Lipofectamine2000. M4/Gqi5/CHO cells were grown in Ham's F-12 medium containing 10% heat-inactivated fetal bovine serum (FBS), 20 mM HEPES, 500 μg/mL G^418 sulfate, and 200 μg/mL Hygromycin B.
For high throughput measurement of agonist-evoked increases in intracellular calcium, CHO-K1 cells stably expressing muscarinic receptors were plated in growth medium lacking G418 and hygromycin at 15,000 cells/20 μL/well in Greiner 384-well black-walled, tissue culture (TC)-treated, clear-bottom plates (VWR). Cells were incubated overnight at 37° C. and 5% CO2. The next day, cells were washed using an ELX 405 (BioTek) with assay buffer; the final volume was then aspirated to 20 μL. Next, 20 μL of a 2.3 μM stock of Fluo-4/acetoxymethyl ester (Invitrogen, Carlsbad, Calif.), prepared as a 2.3 mM stock in DMSO and mixed in a 1:1 ratio with 10% (w/v) Pluronic F-127 and diluted in assay buffer, was added to the wells and the cell plates were incubated for 50 min at 37° C. and 5% CO2. Dye was removed by washing with the ELX 405 and the final volume was aspirated to 20 μL. Compound master plates were formatted in a 10 point concentration-response curve (CRC) format (1:3 dilutions) in 100% DMSO with a starting concentration of 10 or 1 mM using a BRAVO liquid handler (Agilent). Test compound CRCs were then transferred to daughter plates (240 nL) using the Echo acoustic plate reformatter (Labcyte, Sunnyvale, Calif.) and then diluted into assay buffer (40 μL) to a 2× stock using a Thermo Fisher Combi (Thermo Fisher Scientific, Waltham, Mass.).
Calcium flux was measured using the Functional Drug Screening System (FDSS) 6000 or 7000 (Hamamatsu Corporation, Tokyo, Japan) as an increase in the fluorescent static ratio. Compounds were applied to cells (20 μL, 2×) using the automated system of the FDSS at 2 seconds into the protocol and the data were collected at 1 Hz. At 143 s, 10 μL of an EC20 concentration of the muscarinic receptor agonist acetylcholine was added (5×), followed by the addition of […] of an EC80 concentration of acetylcholine at the 268 s time point (5×). Agonist activity was analyzed as a concentration-dependent increase in calcium mobilization upon compound addition. Positive allosteric modulator activity was analyzed as a concentration-dependent increase in the EC2o acetylcholine response. Antagonist activity was analyzed as a concentration-dependent decrease in the EC80 acetylcholine response; for the purposes of the tables herein, an IC50 (inhibitory concentration 50) was calculated as a concentration-dependent decrease of the response elicited by an EC80 concentration of acetylcholine. Concentration-response curves were generated using a four-parameter logistical equation in XLFit curve fitting software (IDBS, Bridgewater, N.J.) for Excel (Microsoft, Redmond, Wash.) or Prism (GraphPad Software, Inc., San Diego, Calif.) or the Dotmatics software platform (Dotmatics, Bishop's Stortford, UK).
Compounds were synthesized as described above. Activity (IC50 and Emin) was determined in the mAChR M4 cell-based functional assay as described above and the data are shown in Table 2.

Row | Human M4 Emin [%] | IC50 [µM] | Structure (SMILES)
1 | 2 | 0.00613 | [2H]C([2H])(N1C[C@H]2C[C@H](Nc3ccc(-c4cc(F)cc(F)c4F)nn3)C[C@H]2C1)C1(C)CCOCC1 [Compound 14, (3aR,5s,6aS)-2-((4-methyltetrahydro-2H-pyran-4-yl)methyl-d2)-N-(6-(2,3,5-trifluorophenyl)pyridazin-3-yl)octahydrocyclopenta[c]pyrrol-5-amine]
2 | 2 | 0.184 | [2H]C([2H])(N1C[C@H]2C[C@H](Nc3ccc(-c4cc(F)cc(F)c4F)nn3)C[C@H]2C1)C1(OC)CCCOC1 (stereo partly drawn) [Compound 48, (3aR,5s,6aS)-2-((3-methoxytetrahydro-2H-pyran-3-yl)methyl-d2)-N-(6-(2,3,5-trifluorophenyl)pyridazin-3-yl)octahydrocyclopenta[c]pyrrol-5-amine]
3 | 3 | 0.038 | Cc1cccc(CN2C[C@H]3C[C@H](Nc4ccc(-c5cc(F)cc(F)c5F)nn4)C[C@H]3C2)n1 [Compound 16, (3aR,5s,6aS)-2-((6-methylpyridin-2-yl)methyl)-N-(6-(2,3,5-trifluorophenyl)pyridazin-3-yl)octahydrocyclopenta[c]pyrrol-5-amine]
4 | 2 | 0.0023 | OC1(CN2C[C@H]3C[C@H](Nc4ccc(-c5cc(F)cc(F)c5F)nn4)C[C@H]3C2)CCCC1 [Compound 61, 1-(((3aR,5s,6aS)-5-((6-(2,3,5-trifluorophenyl)pyridazin-3-yl)amino)hexahydrocyclopenta[c]pyrrol-2(1H)-yl)methyl)cyclopentan-1-ol]
5 | 3 | 0.00036 | Fc1cc(F)c(F)c(-c2ccc(N[C@H]3C[C@@H]4CN(CC5CC6(COC6)C5)C[C@@H]4C3)nn2)c1 [Compound 68, (3aR,5s,6aS)-2-((2-oxaspiro[3.3]heptan-6-yl)methyl)-N-(6-(2,3,5-trifluorophenyl)pyridazin-3-yl)octahydrocyclopenta[c]pyrrol-5-amine]
6 | 3 | 0.0137 | Fc1cc(F)c(F)c(-c2ccc(N[C@H]3C[C@@H]4CN(CC5CCCOC5)C[C@@H]4C3)nn2)c1 (single isomer, unassigned) [Compound 24]
7 | 4 | 0.079 | COCCCN1C[C@H]2C[C@H](Nc3ccc(-c4cc(F)cc(F)c4F)nn3)C[C@H]2C1 [Compound 75, (3aR,5s,6aS)-2-(3-methoxypropyl)-N-(6-(2,3,5-trifluorophenyl)pyridazin-3-yl)octahydrocyclopenta[c]pyrrol-5-amine]
8 | 3 | 0.017 | CC1(O)CC(CN2C[C@H]3C[C@H](Nc4ccc(-c5cc(F)cc(F)c5F)nn4)C[C@H]3C2)C1 (some centres unmarked) [Compound 52]
9 | 5 | 0.12 | [2H]C([2H])(COCC)N1C[C@H]2C[C@H](Nc3ccc(-c4cc(F)cc(F)c4F)nn3)C[C@H]2C1 [Compound 79, (3aR,5s,6aS)-2-(2-ethoxyethyl-1,1-d2)-N-(6-(2,3,5-trifluorophenyl)pyridazin-3-yl)octahydrocyclopenta[c]pyrrol-5-amine]
10 | 3 | 0.0067 | [2H]C([2H])(C1CCOCC1)N1C[C@H]2C[C@H](Nc3ccc(-c4cc(F)cc(F)c4F)nn3)C[C@H]2C1 [Compound 81, (3aR,5s,6aS)-2-((tetrahydro-2H-pyran-4-yl)methyl-d2)-N-(6-(2,3,5-trifluorophenyl)pyridazin-3-yl)octahydrocyclopenta[c]pyrrol-5-amine]
11 | 3 | 0.0021 | Fc1cc(F)c(F)c(-c2ccc(N[C@H]3C[C@@H]4CN(CC5CC56CCOCC6)C[C@@H]4C3)nn2)c1 (stereo partly drawn) [Compound 72, (3aR,5s,6aS)-2-((6-oxaspiro[2.5]octan-1-yl)methyl)-N-(6-(2,3,5-trifluorophenyl)pyridazin-3-yl)octahydrocyclopenta[c]pyrrol-5-amine]
12 | 4 | 0.0057 | CC(C1CCOCC1)N1C[C@H]2C[C@H](Nc3ccc(-c4cc(F)cc(F)c4F)nn3)C[C@H]2C1 (stereo partly drawn) [Compound 10, (3aR,5s,6aS)-2-(1-(tetrabydro-2H-pyran-4-yl)ethyl)-N-(6-(2,3,5-trifluorophenyl)pyridazin-3-yl)octahydrocyclopenta[c]pyrrol-5-amine]
13 | 5 | 0.0424 | Cc1cccnc1CN1C[C@H]2C[C@H](Nc3ccc(-c4cc(F)cc(F)c4F)nn3)C[C@H]2C1 [Compound 23, (3aR,5s,6aS)-2-((3-methylpyridin-2-yl)methyl)-N-(6-(2,3,5-trifluorophenyl)pyridazin-3-yl)octahydrocyclopenta[c]pyrrol-5-amine]
14 | 4 | 0.00095 | [2H]C([2H])([C@@H]1CCCCO1)N1C[C@H]2C[C@H](Nc3ccc(-c4cc(F)cc(F)c4F)nn3)C[C@H]2C1 [Compound 43, (3aR,5s,6aS)-2-(((S)-tetrahydro-2H-pyran-2-yl)methyl-d2)-N-(6-(2,3,5-trifluorophenyl)pyridazin-3-yl)octahydrocyclopenta[c]pyrrol-5-amine]
15 | 3 | 0.0009 | O=S1(=O)CCC(CN2C[C@H]3C[C@H](Nc4ccc(-c5cc(F)cc(F)c5F)nn4)C[C@H]3C2)CC1 [Compound 69, 4-(((3aR,5s,6aS)-5-((6-(2,3,5-trifluorophenyl)pyridazin-3-yl)amino)hexahydrocyclopenta[c]pyrrol-2(1H)-yl)methyl)tetrahydro-2H-thiopyran 1,1-dioxide]
16 | 2 | 0.0387 | Fc1cc(F)c(F)c(-c2ccc(N[C@H]3C[C@@H]4CN(C5CCCCC5)C[C@@H]4C3)nn2)c1 [Compound 34, (3aR,5s,6aS)-2-cyclohexyl-N-(6-(2,3,5-trifluorophenyl)pyridazin-3-yl)octahydrocyclopenta[c]pyrrol-5-amine]
17 | 5 | 0.16 | CC(C)(O)CCN1C[C@H]2C[C@H](Nc3ccc(-c4cc(F)cc(F)c4F)nn3)C[C@H]2C1 [Compound 54, 2-methyl-4-((3aR,5s,6aS)-5-((6-(2,3,5-trifluorophenyl)pyridazin-3-yl)amino)hexahydrocyclopenta[c]pyrrol-2(1H)-yl)butan-2-ol]
18 | 5 | 0.015 | [2H]C([2H])(C1CC(C)(O)C1)N1C[C@H]2C[C@H](Nc3ccc(-c4cc(F)cc(F)c4F)nn3)C[C@H]2C1 (stereo partly drawn) [Compound 55, 1-methyl-3-(((3aR,5s,6aS)-5-((6-(2,3,5-trifluorophenyl)pyridazin-3-yl)amino)hexahydrocyclopenta[c]pyrrol-2(1H)-yl)methyl-d2)cyclobutan-1-ol]
19 | 3 | 0.041 | Fc1cc(F)c(F)c(-c2ccc(N[C@H]3C[C@@H]4CN(CC5(F)CCCCC5)C[C@@H]4C3)nn2)c1 [Compound 87, (3aR,5s,6aS)-2-((1-fluorocyclohexyl)methyl)-N-(6-(2,3,5-trifluorophenyl)pyridazin-3-yl)octahydrocyclopenta[c]pyrrol-5-amine]
